The record followed here is patent US20170368082A1, “FORMULATIONS OF BRINCIDOFOVIR” (priority 2016, published 2017).

A short description of the series: PBMC PK of CDV-PP following IV and oral suspension BCV. It is filed as in vivo, human. The note with it: PBMC CDV-PP. The protocol: Two single dose BCV studies in healthy subjects contributed data for this analysis. The first study was a 2-period crossover bioequivalence study that enrolled 24 subjects who received two formulations of BCV oral suspension 100 mg fasted, one in each period. Data from 12 subjects who had PBMCs collected in Period 1 were included in this analysis; these subjects were 100% female, 31-59 years, and 58-88 kg. The second study, outlined above, enrolled 40 subjects who received IV BCV or placebo. Data from 18 subjects who received BCV 50 mg as either a 2-h or 4-h IV infusion were included in this analysis; these subjects were 100% male, 18-46 years, 64-106 kg. Serial PBMC samples were collected over 14 days and assayed by HPLC-MS-MS. PBMC CDV-PP PK parameters were determined by non-compartmental analysis.

Setting [1] is: BCV 50 mg IV 2 h Infusion, n = 9.
Where [2] appears, read: BCV 50 mg IV 4 h Infusion, n = 9.
[3] abbreviates: BCV 100 mg Oral suspension, n = 12.

On to cidofovir diphosphate [CDV-PP], for which the AUClast runs as follows: under setting [1], 1409 pg · h/10^6 cells; under setting [2], 963 pg · h/10^6 cells; under setting [3], 1107 pg · h/10^6 cells. Also, the Cmax is, setting by setting: under setting [1], 14.3 pg/10^6 cells; under setting [2], 8.41 pg/10^6 cells; under setting [3], 7.68 pg/10^6 cells.
